Measurements taken from patent US8399419B2, “Antibacterial aminoglycoside analogs” (Achaogen, Inc., priority 2008, dated 2013).
Values after ≈ are worked out from the molar mass of the structure shown.

Key:
[1] = test system: E. coli ATCC 25922; assay: MIC assay (CLSI broth microdilution), AECO001; format: cell-based; conditions: AECO001 is ATCC25922 (E. coli), Mueller Hinton Broth, 35 C, 20 hours; for MIC: Escherichia coli
Protocol: (§1) Minimum inhibitory concentrations (MIC) were determined by reference Clinical and Laboratory Standards Institute (CLSI) broth microdilution methods per M7-A7 [2006]. Quality control ranges utilizing E. coli ATCC 25922, P. aeruginosa ATCC 27853 and S. aureus ATCC 29213, and interpretive criteria for comparator agents were as published in CLSI M100-S17 [2007]. Briefly, serial two-fold dilutions of the test compounds were prepared at 2× concentration in Mueller Hinton Broth. The compound dilutions were mixed in 96-well assay plates in a 1:1 ratio with bacterial inoculum. The inoculum was prepared by suspension of a colony from an agar plate that was prepared the previous day. Bacteria were suspended in sterile saline and added to each assay plate to obtain a final concentration of 5×10^5 CFU/mL. The plates were incubated at 35 C for 20 hours in ambient air.

[2] = test system: P. aeruginosa ATCC 27853; assay: MIC assay (CLSI broth microdilution), APAE001; format: cell-based; conditions: APAE001 is ATCC27853 (P. aeruginosa), Mueller Hinton Broth, 35 C, 20 hours; for MIC: Pseudomonas aeruginosa
Protocol: as §1

| Molecule | MIC [1] [µg/mL] | MIC [2] [µg/mL] | MIC AECO001 [1] | MIC APAE001 [2] |
| --- | --- | --- | --- | --- |
| NCC[C@H](O)C(=O)N[C@@H]1C[C@H](N)[C@@H](O[C@H]2O[C@H](CO)CC[C@H]2N)[C@H](O[C@@H]2O[C@H](CO)[C@@H](O[C@H]3O[C@@H](CN)CC[C@H]3N)[C@H]2O)[C@H]1O [Example 1/Compound 16, 3′,4′,3′″,4′″-tetradeoxy-1-(4-amino-2(S)-hydroxy-butyryl)-paromomycin] | 1 to 16 (≈ 1.53 to 24.5 µM) | > 16 | – | – |
| NC[C@@H]1CC[C@@H](N)[C@@H](O[C@H]2[C@H](O[C@@H]3O[C@H](CO)[C@@H](O[C@H]4O[C@@H](CN)CC[C@H]4N)[C@H]3O)[C@@H](O)[C@H](NC(=O)C3(O)CNC3)C[C@@H]2N)O1 [Example 10/Compound 4] | ≤ 1 | ≤ 1 | – | – |
| NC[C@@H]1CC[C@@H](N)[C@@H](O[C@H]2[C@H](O[C@@H]3O[C@H](CO)[C@@H](O[C@H]4O[C@@H](CN)CC[C@H]4N)[C@H]3O)[C@@H](O)[C@H](NCCC(N)=O)C[C@@H]2N)O1 [Example 11/Compound 3, 3′,4′,3′″,4′″-tetra-deoxy-1-(3-propionamide)-neomycin] | 1 to 16 (≈ 1.61 to 25.7 µM) | 1 to 16 (≈ 1.61 to 25.7 µM) | – | – |
| NC[C@@H]1CC[C@@H](N)[C@@H](O[C@H]2[C@H](O[C@@H]3O[C@H](CO)[C@@H](O[C@H]4O[C@@H](CN)CC[C@H]4N)[C@H]3O)[C@@H](O)[C@H](N)C[C@@H]2N)O1 [Example 3/Compound 6, 3′,4′,3′″,4′″-tetra-deoxy-neomycin] | ≤ 1 | ≤ 1 | – | – |
| CC(=O)N[C@@H]1C[C@H](N)[C@@H](O[C@H]2O[C@H](CN)CC[C@H]2N)[C@H](O[C@@H]2O[C@H](CO)[C@@H](O[C@H]3O[C@@H](CN)CC[C@H]3N)[C@H]2O)[C@H]1O [Example 8/Compound 3] | 1 to 16 (≈ 1.69 to 27 µM) | 1 to 16 (≈ 1.69 to 27 µM) | – | – |
| NCC[C@H](O)C(=O)N[C@@H]1C[C@H](N)[C@@H](O[C@H]2O[C@H](CN)CC[C@H]2N)[C@H](O[C@@H]2O[C@H](CO)[C@@H](O[C@H]3O[C@@H](CN)CC[C@H]3N)[C@H]2O)[C@H]1O [Example 4/Compound 5, 3′,4′,3′″,4′″-tetra-dehydro-1-(4-amino-2(S)-hydroxy-butyryl)-neomycin] | 1 to 16 (≈ 1.53 to 24.5 µM) | ≤ 1 | – | – |
| NC[C@@H]1CC[C@@H](N)[C@@H](O[C@H]2[C@H](O[C@@H]3O[C@H](CO)[C@@H](O[C@H]4O[C@@H](CN)CC[C@H]4N)[C@H]3O)[C@@H](O)[C@H](NCC(O)CO)C[C@@H]2N)O1 (stereo partly shown) [Example 18/Compound 3, 3′,4′,3′″,4′″-tetra-deoxy-1-(2,3-bis-hydroxy-propyl)-neomycin] | 1 to 16 (≈ 1.6 to 25.6 µM) | ≤ 1 | – | – |
| NC[C@@H]1CC[C@@H](N)[C@@H](O[C@H]2[C@H](O[C@@H]3O[C@H](CO)[C@@H](O[C@H]4O[C@@H](CN)CC[C@H]4N)[C@H]3O)[C@@H](O)[C@H](NC(=O)[C@@H](N)CO)C[C@@H]2N)O1 [Example 20/Compound 3, 3′,4′,3′″,4′″-tetra-deoxy-1-(2(S)-amino-3-hydroxy-propionyl)-neomycin] | 1 to 16 (≈ 1.57 to 25.1 µM) | 1 to 16 (≈ 1.57 to 25.1 µM) | – | – |
| NC[C@@H]1CC[C@@H](N)[C@@H](O[C@H]2[C@H](O[C@@H]3O[C@H](CO)[C@@H](O[C@H]4O[C@@H](CN)CC[C@H]4N)[C@H]3O)[C@@H](O)[C@H](NC(=O)[C@@H](O)CN)C[C@@H]2N)O1 [Example 13/Compound 4, 3′,4′,3′″,4′″-tetra-deoxy-1-(2(S)-hydroxy-3-amino-propionyl)-neomycin] | 1 to 16 (≈ 1.57 to 25.1 µM) | ≤ 1 | – | – |
| NC[C@@H]1CC[C@@H](N)[C@@H](O[C@H]2[C@H](O[C@@H]3O[C@H](CO)[C@@H](O[C@H]4O[C@@H](CN)CC[C@H]4N)[C@H]3O)[C@@H](O)[C@H](NCCO)C[C@@H]2N)O1 [Example 15/Compound 3, 3′,4′,3′″,4′″-tetra-deoxy-1-(2-hydroxyethyl)-neomycin] | 1 to 16 (≈ 1.68 to 26.9 µM) | 1 to 16 (≈ 1.68 to 26.9 µM) | – | – |
| NCCS(=O)(=O)N[C@@H]1C[C@H](N)[C@@H](O[C@H]2O[C@H](CN)CC[C@H]2N)[C@H](O[C@@H]2O[C@H](CO)[C@@H](O[C@H]3O[C@@H](CN)CC[C@H]3N)[C@H]2O)[C@H]1O [Example 23/Compound 4, 3′,4′,3′″,4′″-tetra-deoxy-1-(2-amino-ethylsulfonamide)-neomycin] | 1 to 16 (≈ 1.52 to 24.3 µM) | – | – | – |
| NC[C@@H]1CC[C@@H](N)[C@@H](O[C@H]2[C@H](O[C@@H]3O[C@H](CO)[C@@H](O[C@H]4O[C@@H](CN)CC[C@H]4N)[C@H]3O)[C@@H](O)[C@H](NC(=O)[C@@H](O)C(F)(F)CN)C[C@@H]2N)O1 [Example 26/Compound 6, 3′,4′,3′″,4′″-tetra-deoxy-1-(4-amino-3,3-bisfluoro-2(R)-hydroxy-butyryl)-neomycin] | ≤ 1 | ≤ 1 | – | – |
| NC[C@@H]1CC[C@@H](N)[C@@H](O[C@H]2[C@H](O[C@@H]3O[C@H](CO)[C@@H](O[C@H]4O[C@@H](CN)CC[C@H]4N)[C@H]3O)[C@@H](O)[C@H](NC(=O)[C@H](O)C(F)(F)CN)C[C@@H]2N)O1 [Example 27/Compound 6, 3′,4′,3′″,4′″-tetra-deoxy-1-(4-amino-3,3-bisfluoro-2(S)-hydroxy-butyryl)-neomycin] | 1 to 16 (≈ 1.45 to 23.3 µM) | 1 to 16 (≈ 1.45 to 23.3 µM) | – | – |
| N=C(N)NCC[C@H](O)C(=O)N[C@@H]1C[C@H](N)[C@@H](O[C@H]2O[C@H](CN)CC[C@H]2N)[C@H](O[C@@H]2O[C@H](CO)[C@@H](O[C@H]3O[C@@H](CN)CC[C@H]3N)[C@H]2O)[C@H]1O [Example 17/Compound 4, 3′,4′,3′″,4′″-tetra-deoxy-1-(2(S)-hydroxy-4-guanidino-butyryl)-neomycin] | 1 to 16 (≈ 1.44 to 23.1 µM) | ≤ 1 | – | – |
| 3′,4′,3′″,4′″-tetra-deoxy-1-(3-amino-propionyl)-neomycin [Example 14/Compound 4] | – | – | B (MIC's of greater than 1.0 μg/mL to 16.0 μg/mL = B) | B (MIC's of greater than 1.0 μg/mL to 16.0 μg/mL = B) |
| NCCN(O)C(=O)N[C@@H]1C[C@H](N)[C@@H](O[C@H]2O[C@H](CN)CC[C@H]2N)[C@H](O[C@@H]2O[C@H](CO)[C@@H](O[C@H]3O[C@@H](CN)CC[C@H]3N)[C@H]2O)[C@H]1O [Example 22/Compound 6] | ≤ 1 | ≤ 1 | – | – |
| NC[C@@H]1CC[C@@H](N)[C@@H](O[C@H]2[C@H](O[C@@H]3O[C@H](CO)[C@@H](O[C@H]4O[C@@H](CN)CC[C@H]4N)[C@H]3O)[C@@H](O)[C@H](NC(=O)[C@@H](O)[C@@H](O)CN)C[C@@H]2N)O1 [Example 28/Compound 6, 3′,4′,3′″,4′″-tetra-deoxy-1-(4-amino-3,2-(S,S)-bis-hydroxy-butyryl)-neomycin] | ≤ 1 | ≤ 1 | – | – |
| NC[C@@H]1CC[C@@H](N)[C@@H](O[C@H]2[C@H](O[C@@H]3O[C@H](CO)[C@@H](O[C@H]4O[C@@H](CN)CC[C@H]4N)[C@H]3O)[C@@H](O)[C@H](NC(=O)[C@H](O)[C@H](O)CN)C[C@@H]2N)O1 [Example 29/Compound 6, 3′,4′,3′″,4′″-tetra-deoxy-1-(4-amino-3,2-(R,R)-bis-hydroxy-butyryl)-neomycin] | 1 to 16 (≈ 1.5 to 24 µM) | ≤ 1 | – | – |
| NC[C@@H]1CC[C@@H](N)[C@@H](O[C@H]2[C@H](O[C@@H]3O[C@H](CO)[C@@H](O[C@H]4O[C@@H](CN)CC[C@H]4N)[C@H]3O)[C@@H](O)[C@H](NC(CO)CO)C[C@@H]2N)O1 [Example 21/Compound 3, 3′,4′,3′″,4′″-tetra-deoxy-1-(2-hydroxy-1-hydroxymethyl-ethyl)-neomycin] | 1 to 16 (≈ 1.6 to 25.6 µM) | 1 to 16 (≈ 1.6 to 25.6 µM) | – | – |
| NCC(=O)N[C@@H]1C[C@H](N)[C@@H](O[C@H]2O[C@H](CN)CC[C@H]2N)[C@H](O[C@@H]2O[C@H](CO)[C@@H](O[C@H]3O[C@@H](CN)CC[C@H]3N)[C@H]2O)[C@H]1O [Example 19/Compound 3, 3′,4′,3′″,4′″-tetra-deoxy-1-(2-aminoacetyl)-neomycin] | 1 to 16 (≈ 1.65 to 26.3 µM) | 1 to 16 (≈ 1.65 to 26.3 µM) | – | – |
| NCC(O)CN[C@@H]1C[C@H](N)[C@@H](O[C@H]2O[C@H](CN)CC[C@H]2N)[C@H](O[C@@H]2O[C@H](CO)[C@@H](O[C@H]3O[C@@H](CN)CC[C@H]3N)[C@H]2O)[C@H]1O (stereo partly shown) [Example 12/Compound 3, 3′,4′,3′″,4′″-tetra-deoxy-1-(2-hydroxy-3-amino-propyl)-neomycin] | 1 to 16 (≈ 1.6 to 25.7 µM) | ≤ 1 | – | – |
| NC[C@@H]1CC[C@@H](N)[C@@H](O[C@H]2[C@H](O[C@@H]3O[C@H](CO)[C@@H](O[C@H]4O[C@@H](CN)CC[C@H]4N)[C@H]3O)[C@@H](O)[C@H](NC(=O)[C@@H](O)[C@H](F)CN)C[C@@H]2N)O1 [Example 24/Compound 8, 3′,4′,3′″,4′″-tetra-deoxy-1-(4-amino-3(R)-fluoro-2(R)-hydroxy-butyryl)-neomycin] | ≤ 1 | ≤ 1 | – | – |
| NC[C@@H]1CC[C@@H](N)[C@@H](O[C@H]2[C@H](O[C@@H]3O[C@H](CO)[C@@H](O[C@H]4O[C@@H](CN)CC[C@H]4N)[C@H]3O)[C@@H](O)[C@H](NC(=O)C3(O)CC(N)C3)C[C@@H]2N)O1 (stereo partly shown) [Example 9/Compound 4] | ≤ 1 | ≤ 1 | – | – |
| NC[C@@H]1CC[C@@H](N)[C@@H](O[C@H]2[C@H](O[C@@H]3O[C@H](CO)[C@@H](O[C@H]4O[C@@H](CN)CC[C@H]4N)[C@H]3O)[C@@H](O)[C@H](NCc3cccc(O)c3)C[C@@H]2N)O1 [Example 16/Compound 3, 3′,4′,3′″,4′″-tetra-deoxy-1-(3-hydroxybenzyl)-neomycin] | 1 to 16 (≈ 1.52 to 24.4 µM) | 1 to 16 (≈ 1.52 to 24.4 µM) | – | – |
| NCCCS(=O)(=O)N[C@@H]1C[C@H](N)[C@@H](O[C@H]2O[C@H](CN)CC[C@H]2N)[C@H](O[C@@H]2O[C@H](CO)[C@@H](O[C@H]3O[C@@H](CN)CC[C@H]3N)[C@H]2O)[C@H]1O [Example 7/Compound 4] | 1 to 16 (≈ 1.49 to 23.8 µM) | ≤ 1 | – | – |
